We go through 29 molecules from patent US11267825B2 (AICURIS GMBH & CO. KG, priority 2017, dated 2022).

In one assay the test system is HBV. Nature of the assay: Determination of HBV DNA from the supernatants of HepAD38 cells (anti-HBV activity). It is filed as cell-based, hepatitis B virus. Conditions: Hepatitis B virus, 144 h; HBV DNA in HepAD38 supernatant at day 6; read-out: Cell Activity (EC50). The method in brief:
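EC50 values were obtained by non-linear regression of HBV DNA copy numbers measured by qPCR against pCH-9/3091 plasmid standards. The DNA came from filtered supernatants collected on day 6. Before that, tetracycline-withdrawn HepAD38 cells had been exposed to serial half-log compound dilutions, with tetracycline-treated cells as the non-producing control.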

A further assay concerns the target HBV core protein (UniProt P03146). It is filed as biochemical. Conditions: read-out: Assembly Activity (IC50); BODIPY-FL labelled core protein, assembly started with NaCl, read after 6 min. A digest of the protocol:
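Compounds tested at 8 concentrations in 0.5-log steps from 100, 31.6 or 10 μM against 1.0–2.0 μM BODIPY-FL-labelled Cys150 core dimers (residues 1–149), 50 mM HEPES pH 7.5. NaCl ([…] final) triggered assembly; quenching read at 6 min, 477/525 nm, with 2.5 M and 0 M NaCl as controls; EC50 by nonlinear fit.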

Bounds are passed on as bounds.

Chain of HBV core protein (P03146 whole entry, looked up, the tested form may be a part): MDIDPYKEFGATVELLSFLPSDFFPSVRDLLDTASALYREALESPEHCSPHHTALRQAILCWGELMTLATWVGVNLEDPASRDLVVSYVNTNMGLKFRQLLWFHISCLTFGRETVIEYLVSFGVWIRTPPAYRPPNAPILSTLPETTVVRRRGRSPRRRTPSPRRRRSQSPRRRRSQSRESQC

A word on the EC50: it is the concentration that produces a half-maximal response. For orientation: IC50 means the point on the concentration scale where inhibition reaches its midpoint. With `CC(C)(C)NC(=O)Nc1nc2c(s1)CN(C(=O)c1cc3c(Cl)cc(F)cc3[nH]1)CC2` [Example 265, 3-tert-butyl-1-[5-(4-chloro-6-fluoro-1H-indole-2-carbonyl)-4H,5H,6H,7H-[1,3]thiazolo[5,4-c]pyridin-2-yl]urea], in the assay with HBV, the EC50 is less than 1 µM. Besides, on HBV core protein, the concentration for half-maximal inhibition (IC50) was less than 100 µM.

On to `CCc1cccc2[nH]c(C(=O)N3CCc4nc(N)sc4C3)cc12` [Example 81, 5-(4-ethyl-1H-indole-2-carbonyl)-4H,5H,6H,7H-[1,3]thiazolo[5,4-c]pyridin-2-amine], for which the concentration giving a half-maximal response (EC50) with HBV is less than 1 µM. Also, the 50% inhibitory concentration (IC50) at HBV core protein was less than 5 µM.

As for `CC(Nc1nc2c(s1)CN(C(=O)c1cc3ccccc3[nH]1)CC2)C(F)(F)F` (stereo not shown) [Example 22, 5-(1H-indole-2-carbonyl)-N-(1,1,1-trifluoropropan-2-yl)-4H,5H,6H,7H-[1,3]thiazolo[5,4-c]pyridin-2-amine], the EC50 in the assay with HBV was less than 1 µM. The IC50 at HBV core protein was less than 100 µM.

Regarding `CCc1cccc2[nH]c(C(=O)N3CCc4nc(N[C@H]5CC[C@@H](O)CC5)sc4C3)cc12` [Example 335, (1s,4s)-4-{[5-(4-ethyl-1H-indole-2-carbonyl)-4H,5H,6H,7H-[1,3]thiazolo[5,4-c]pyridin-2-yl]amino}cyclohexan-1-ol], the EC50 in the assay on HBV is less than 1 µM. In addition, the IC50 on HBV core protein is less than 5 µM.

Take `O=C(c1cc2ccccc2[nH]1)N1CCc2nc(NCC3CCC3)sc2C1` [Example 418, N-(cyclobutylmethyl)-5-(1H-indole-2-carbonyl)-4H,5H,6H,7H-[1,3]thiazolo[5,4-c]pyridin-2-amine]: in the assay with HBV, the EC50 was less than 1 µM. Moreover, at HBV core protein, the IC50 is 5 to 10 µM.

As to `O=C(c1cc2ccccc2[nH]1)N1CCc2nc(NCC3CCCO3)sc2C1` (stereo not shown) [Example 72, 5-(1H-indole-2-carbonyl)-N-[(oxolan-2-yl)methyl]-4H,5H,6H,7H-[1,3]thiazolo[5,4-c]pyridin-2-amine], the EC50 with HBV was less than 1 µM. Besides, on HBV core protein, the IC50 was less than 5 µM.

Turning to `O=C(Nc1nc2c(s1)CN(C(=O)c1cc3c(Cl)cc(F)cc3[nH]1)CC2)C1CCOCC1` [Example 320, N-[5-(4-chloro-6-fluoro-1H-indole-2-carbonyl)-4H,5H,6H,7H-[1,3]thiazolo[5,4-c]pyridin-2-yl]oxane-4-carboxamide], the EC50 with HBV is less than 1 µM. The IC50 on HBV core protein was in the range of 5 to 10 µM.

For the molecule `O=C(c1cc2ccccc2[nH]1)N1CCc2nc(NCC3CCNC3)sc2C1` (stereo not shown) [Example 389, 5-(1H-indole-2-carbonyl)-N—[(pyrrolidin-3-yl)methyl]-4H,5H,6H,7H-[1,3]thiazolo[5,4-c]pyridin-2-amine], in the assay on HBV, the EC50 lay within 1 to 10 µM. In addition, the 50% inhibitory concentration (IC50) at HBV core protein was less than 5 µM.

As to `CC1c2sc(N)nc2CCN1C(=O)c1cc2ccccc2[nH]1` (stereo not shown) [Example 109, 5-(1H-indole-2-carbonyl)-4-methyl-4H,5H,6H,7H-[1,3]thiazolo[5,4-c]pyridin-2-amine], the EC50 in the assay on HBV was less than 100 µM. For the same molecule, the IC50 on HBV core protein is less than 100 µM.

For `CC(=O)N1CCOC(CNc2nc3c(s2)CN(C(=O)c2cc4ccccc4[nH]2)CC3)C1` (stereo not shown) [Example 242, 1-[2-({[5-(1H-indole-2-carbonyl)-4H,5H,6H,7H-[1,3]thiazolo[5,4-c]pyridin-2-yl]amino}methyl)morpholin-4-yl]ethan-1-one], the EC50 with HBV is less than 1 µM. In addition, the IC50 at HBV core protein is 5 to 10 µM.

With `Cc1cc(F)cc2[nH]c(C(=O)N3CCc4nc(NCC5(CO)CC5)sc4C3)cc12` [Example 271, [1-({[5-(6-fluoro-4-methyl-1H-indole-2-carbonyl)-4H,5H,6H,7H-[1,3]thiazolo[5,4-c]pyridin-2-yl]amino}methyl)cyclopropyl]methanol], the EC50 in the assay with HBV was less than 1 µM. Moreover, the IC50 at HBV core protein was less than 5 µM.

As to `Nc1nc2c(s1)CN(C(=O)c1cc3cccc(Br)c3[nH]1)CC2` [Example 171, 5-(7-bromo-1H-indole-2-carbonyl)-4H,5H,6H,7H-[1,3]thiazolo[5,4-c]pyridin-2-amine], the concentration giving a half-maximal response (EC50) in the assay on HBV was less than 1 µM. Also, the IC50 at HBV core protein is less than 5 µM.

In the case of `CC(C)OC1(CNc2nc3c(s2)CN(C(=O)c2cc4ccccc4[nH]2)CC3)CCC1` [Example 413, 5-(1H-indole-2-carbonyl)-N-{[1-(propan-2-yloxy)cyclobutyl]methyl}-4H,5H,6H,7H-[1,3]thiazolo[5,4-c]pyridin-2-amine], the EC50 in the assay with HBV was less than 1 µM. In addition, the IC50 at HBV core protein is less than 5 µM.

For the molecule `COC(=O)[C@@H]1C[C@H](Nc2nc3c(s2)CN(C(=O)c2cc4ccccc4[nH]2)CC3)CN1` [Example 289, Methyl (2S,4S)-4-{[5-(1H-indole-2-carbonyl)-4H,5H,6H,7H-[1,3]thiazolo[5,4-c]pyridin-2-yl]amino}pyrrolidine-2-carboxylate], in the assay with HBV, the concentration giving a half-maximal response (EC50) is less than 100 µM. Further, the IC50 on HBV core protein was less than 5 µM.

On to `Nc1nc2c(s1)CN(C(=O)c1cc3c(F)c(F)ccc3[nH]1)CC2` [Example 172, 5-(4,5-difluoro-1H-indole-2-carbonyl)-4H,5H,6H,7H-[1,3]thiazolo[5,4-c]pyridin-2-amine], for which the 50% effective concentration (EC50) in the assay on HBV was less than 1 µM. On HBV core protein, the IC50 is less than 5 µM.

On to `O=C(c1cc2ccccc2[nH]1)N1CCc2nc(NCC3(O)CCC3)sc2C1` [Example 46, 1-({[5-(1H-indole-2-carbonyl)-4H,5H,6H,7H-[1,3]thiazolo[5,4-c]pyridin-2-yl]amino}methyl)cyclobutan-1-ol], for which the concentration for a half-maximal effect (EC50) in the assay with HBV is less than 1 µM. Also, the IC50 at HBV core protein is less than 5 µM.

In the case of `Nc1nc2c(s1)CN(C(=O)c1[nH]c3ccccc3c1F)CC2` [Example 220, 5-(3-fluoro-1H-indole-2-carbonyl)-4H,5H,6H,7H-[1,3]thiazolo[5,4-c]pyridin-2-amine], in the assay on HBV, the EC50 is 1 to 10 µM. Besides, the half-inhibitory concentration (IC50) on HBV core protein is less than 100 µM.

As for `O=C(c1cc2c(Cl)cc(F)cc2[nH]1)N1CCc2nc(NCC3(CO)CC3)sc2C1` [Example 60, [1-({[5-(4-chloro-6-fluoro-1H-indole-2-carbonyl)-4H,5H,6H,7H-[1,3]thiazolo[5,4-c]pyridin-2-yl]amino}methyl)cyclopropyl]methanol], the EC50 in the assay on HBV was less than 1 µM. For the same molecule, the IC50 on HBV core protein is less than 5 µM.

Take `O=C(c1cc2ccccc2[nH]1)N1CCc2nc(NCCn3cccn3)sc2C1` [Example 285, 5-(1H-indole-2-carbonyl)-N-[2-(1H-pyrazol-1-yl)ethyl]-4H,5H,6H,7H-[1,3]thiazolo[5,4-c]pyridin-2-amine]: in the assay with HBV, the half-maximal effective concentration (EC50) was less than 1 µM. The IC50 at HBV core protein is less than 5 µM.

Regarding `Cc1cccc2[nH]c(C(=O)N3CCc4nc(NC5CCOC5)sc4C3)cc12` (stereo not shown) [Example 76, 5-(4-methyl-1H-indole-2-carbonyl)-N-(oxolan-3-yl)-4H,5H,6H,7H-[1,3]thiazolo[5,4-c]pyridin-2-amine], in the assay with HBV, the EC50 is less than 1 µM. For the same molecule, on HBV core protein, the half-inhibitory concentration (IC50) is less than 5 µM.

With `CC(O)CNc1nc2c(s1)CN(C(=O)c1cc3c(F)ccc(F)c3[nH]1)CC2` (stereo not shown) [Example 144, 1-{[5-(4,7-difluoro-1H-indole-2-carbonyl)-4H,5H,6H,7H-[1,3]thiazolo[5,4-c]pyridin-2-yl]amino}propan-2-ol], the EC50 with HBV is less than 1 µM. Further, the IC50 on HBV core protein is less than 5 µM.

With `Cc1cc(Cl)cc2cc(C(=O)N3CCc4nc(N)sc4C3)[nH]c12` [Example 139, 5-(5-chloro-7-methyl-1H-indole-2-carbonyl)-4H,5H,6H,7H-[1,3]thiazolo[5,4-c]pyridin-2-amine], the EC50 with HBV is less than 100 µM. Also, the IC50 on HBV core protein was less than 100 µM.

For the molecule `O=C(Nc1nc2c(s1)CN(C(=O)c1cc3c(C(F)F)cccc3[nH]1)CC2)C1CCOCC1` [Example 400, N-{5-[4-(difluoromethyl)-1H-indole-2-carbonyl]-4H,5H,6H,7H-[1,3]thiazolo[5,4-c]pyridin-2-yl}oxane-4-carboxamide], the EC50 with HBV was less than 1 µM. In addition, the IC50 at HBV core protein is less than 5 µM.

As to `CN(C)c1nc2c(s1)CN(C(=O)c1cc3c(Cl)cc(F)cc3[nH]1)CC2` [Example 209, 5-(4-chloro-6-fluoro-1H-indole-2-carbonyl)-N,N-dimethyl-4H,5H,6H,7H-[1,3]thiazolo[5,4-c]pyridin-2-amine], the EC50 with HBV fell in the range of 1 to 10 µM. The IC50 on HBV core protein was in the range of 5 to 10 µM.

Take `Nc1nc2c(s1)CN(C(=O)c1cc3c(C(F)F)cc(F)cc3[nH]1)CC2` [Example 292, 5-[4-(difluoromethyl)-6-fluoro-1H-indole-2-carbonyl]-4H,5H,6H,7H-[1,3]thiazolo[5,4-c]pyridin-2-amine]: in the assay on HBV, the EC50 is less than 1 µM. In addition, the half-inhibitory concentration (IC50) on HBV core protein is less than 5 µM.

On to `O=C(c1cc2ccccc2[nH]1)N1CCc2nc(NCC3CCCCO3)sc2C1` (stereo not shown) [Example 35, 5-(1H-indole-2-carbonyl)-N-[(oxan-2-yl)methyl]-4H,5H,6H,7H-[1,3]thiazolo[5,4-c]pyridin-2-amine], for which the EC50 in the assay on HBV was less than 1 µM. Besides, the 50% inhibitory concentration (IC50) on HBV core protein fell in the range of 5 to 10 µM.

As for `Cc1nc2c(s1)CN(C(=O)c1cc3c(Cl)c(Cl)ccc3[nH]1)CC2` [Example 185, 4,5-dichloro-2-{2-methyl-4H,5H,6H,7H-[1,3]thiazolo[5,4-c]pyridine-5-carbonyl}-1H-indole], in the assay with HBV, the EC50 is less than 100 µM. In addition, on HBV core protein, the IC50 was less than 100 µM.

`COC1COCCC1Nc1nc2c(s1)CN(C(=O)c1cc3ccccc3[nH]1)CC2` (stereo not shown) [Example 231, 5-(1H-indole-2-carbonyl)-N-(3-methoxyoxan-4-yl)-4H,5H,6H,7H-[1,3]thiazolo[5,4-c]pyridin-2-amine]: the EC50 in the assay with HBV is less than 1 µM. The IC50 on HBV core protein was in the range of 5 to 10 µM.

On to `O=C(c1cc2ccccc2[nH]1)N1CCc2nc(CNCC3(CO)CC3)sc2C1` [Example 41, {1-[({[5-(1H-indole-2-carbonyl)-4H,5H,6H,7H-[1,3]thiazolo[5,4-c]pyridin-2-yl]methyl}amino)methyl]cyclopropyl}methanol], for which the EC50 in the assay with HBV is 1 to 10 µM. In addition, the IC50 at HBV core protein is less than 100 µM.
